From patent EP4289421A1, “COMBINATION OF PALMITOYLETHANOLAMIDE (PEA) AND MELATONIN FOR THE TREATMENT OF MAST CELL HYPER-REACTIVITY” (Erbozeta S.p.A., priority 2022, dated 2023)

Test system: human mast cell line (HMC-1.1)
Assay: Release of pro-pain and pro-inflammatory mediators (degranulation) by activated human mast cells
Type: cell-based
Settings: HMC-1.1 activated by compound 48/80 or substance P; substances added individually or combined
Protocol: A human mast cell line (HMC-1.1) was activated both by compound 48/80 (a potent synthetic stimulant, available from Sigma-Aldrich) and by substance P (potent physiological stimulant, CAS number 33507-63-0). The release of pro-pain and pro-inflammatory mediators, such as histamine, TNF-α and IL-6, was then measured in the absence of PEA and melatonin, in the presence of PEA or melatonin alone as well as in the presence of PEA + melatonin. The use of mast cells of human origin, compared to classic murine mast cells, has allowed to measure, with high reliability, the release not only of histamine but also of protein mediators such as TNF-α and IL-6. The in vitro analysis then made it possible to evaluate the effects of the combination at the mast cell level in a highly specific and precise manner. A direct study on a biological organism, ultimately humans, would have been insensitive as the variation of pro-pain and pro-inflammatory mediators, detected in the blood or in any body fluid, would have depended on an action of PEA and melatonin on various cell types, and not exclusively on mast cells.

SMILES	reduction in the release of mast cell mediators (histamine, TNF-α, IL-6)
CCCCCCCCCCCCCCCC(=O)NCCO [PEA, palmitoylethanolamide]	comparable reduction in the release of mast cell mediators
COc1ccc2[nH]cc(CCNC(C)=O)c2c1 [melatonin]	comparable reduction in the release of mast cell mediators
